The values that follow come from ChEMBL document CHEMBL1201862, “PubChem BioAssay data set” (2004).

SMILES strings stand for the structures.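 1) Cells in 96-well plates. 2) Compound, 48 h, 5 concentrations. 3) Linear interpolation between surrounding doses. 4) Unreached endpoint = highest concentration. GI50 = concentration required for 50% inhibition of growth.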 Active and inactive are the calls of the source. Cut-off read from the data, not from the text of the source: active = GI50 up to about 1.1 µM and inactive = higher. Bounds are passed on as bounds.

Test systems include BT-549; CAKI-1; HCC 2998; HL-60; K562; KM12; M14; Malme-3M; NCI-H460; OVCAR-4; PC-3; SF-295; SF-539; SK-MEL-2; SK-OV-3; T47D; UACC-257; UACC-62; UO-31.
What all share (experiment): inhibition of tumour cell growth, NCI panel, 48 h

On to `CCOC(=O)c1ccc(C(=O)OCC)n1-c1cc2cc(c1)CSCc1cc(cc(-n3c(C(=O)OCC)ccc3C(=O)OCC)c1)CSC2`, for which the GI50 in the assay on BT-549, in the assay with CAKI-1, in the assay with HCC 2998, with HL-60, in the assay with K562 and in the assay with KM12 was > 10 µM (inactive) in each case. Besides, the GI50 in the assay on M14, in the assay with Malme-3M, with NCI-H460, in the assay on OVCAR-4, in the assay with PC-3 and in the assay with SF-295 was > 10 µM (inactive) throughout. Further, the GI50 with SF-539, in the assay with SK-MEL-2, with SK-OV-3, with T47D, in the assay with UACC-257 and with UACC-62 was > 10 µM (inactive) throughout. In addition, the GI50 in the assay with UO-31 was > 10 µM (inactive).

For `CSC1(SC)N2Cc3ccccc3N=C2C1(c1ccccc1)c1ccccc1`, the GI50 in the assay with BT-549 was > 50.6 µM (inactive); in the assay with CAKI-1, 11 µM (inactive); with HCC 2998 it was 2.6 µM (inactive); with HL-60, 6.08 µM (inactive); with K562, 10.1 µM (inactive); with KM12, 7.73 µM (inactive). Also, the GI50 with M14 is 12.2 µM (inactive); with Malme-3M it was 8.22 µM (inactive); in the assay on NCI-H460 it was 7.48 µM (inactive); in the assay on OVCAR-4 it was 10.1 µM (inactive); with PC-3, 12 µM (inactive); with SF-295 it was 11.1 µM (inactive). Also, the GI50 with SF-539 was 12.8 µM (inactive); in the assay on SK-MEL-2, 12.7 µM (inactive); in the assay on SK-OV-3, > 54.5 µM (inactive); with T47D, 4.51 µM (inactive); in the assay on UACC-257, 13 µM (inactive); in the assay on UACC-62, 12.6 µM (inactive). For the same molecule, the GI50 in the assay on UO-31 was 24.8 µM (inactive).

Consider `CCOC(=O)CCC(NC(=O)Cc1ccc(Nc2nc3cc(F)c(F)cc3nc2C(=O)OCC)cc1)C(=O)OCC` (stereo not drawn), for which the GI50 is 51.2 µM (inactive) in the assay with BT-549; > 100 µM (inactive) in the assay with CAKI-1; > 100 µM (inactive) in the assay on HCC 2998; 21.5 µM (inactive) in the assay on HL-60; 37.2 µM (inactive) in the assay on K562; > 100 µM (inactive) with KM12. Also, the GI50 was > 100 µM (inactive) in the assay on M14; 88.1 µM (inactive) in the assay with Malme-3M; > 100 µM (inactive) in the assay on NCI-H460; > 100 µM (inactive) in the assay with OVCAR-4; > 100 µM (inactive) with PC-3; > 100 µM (inactive) in the assay with SF-295. Also, the GI50 in the assay with SF-539 was > 100 µM (inactive); with SK-MEL-2 it was 23.7 µM (inactive); with SK-OV-3, > 100 µM (inactive); in the assay on T47D, 25.2 µM (inactive); in the assay with UACC-257 it was 28.6 µM (inactive); in the assay with UACC-62, 58.7 µM (inactive). For the same molecule, the GI50 in the assay with UO-31 is > 100 µM (inactive).

On to `C=COC(=O)N[C@H]1CCc2cc(OC)c(OC)c(OC)c2-c2ccc(SC)c(=O)cc21`, for which the GI50 with BT-549, with CAKI-1, in the assay with HCC 2998, in the assay on HL-60, in the assay with K562 and with KM12 was < 0.01 µM (active) in each case. Further, the GI50 in the assay on M14 was < 0.01 µM (active); with Malme-3M it was < 0.01 µM (active); with NCI-H460 it was < 0.01 µM (active); in the assay with OVCAR-4 it was 4.97 µM (inactive); in the assay on PC-3 it was < 0.01 µM (active); in the assay with SF-295, < 0.01 µM (active). Moreover, the GI50 was < 0.01 µM (active) in the assay on SF-539; < 0.01 µM (active) in the assay on SK-MEL-2; 0.0255 µM (active) in the assay with SK-OV-3; 34 µM (inactive) with T47D; 0.116 µM (active) in the assay with UACC-257; < 0.01 µM (active) in the assay on UACC-62. In addition, the GI50 with UO-31 was < 0.048 µM (active).

Take `COC(=O)C1=C(C)NC(C)=C([N+](=O)[O-])C1c1cccc(NO)c1` (stereo not drawn): the GI50 with BT-549 was 4.51 µM (inactive); in the assay with CAKI-1, 8.38 µM (inactive); with HCC 2998 it was 4.53 µM (inactive); in the assay on HL-60 it was 2.8 µM (inactive); in the assay with K562 it was 2.72 µM (inactive); in the assay with KM12, 2.54 µM (inactive). Further, the GI50 is 3.44 µM (inactive) in the assay on M14; 4.31 µM (inactive) in the assay on Malme-3M; 3.37 µM (inactive) in the assay on NCI-H460; 6.04 µM (inactive) in the assay with OVCAR-4; 2.94 µM (inactive) in the assay on PC-3; 3.79 µM (inactive) in the assay with SF-295. The GI50 in the assay with SF-539 is 6.11 µM (inactive); in the assay on SK-MEL-2 it was 11.2 µM (inactive); with SK-OV-3, 7.38 µM (inactive); with T47D, 3.27 µM (inactive); in the assay with UACC-257, 4.61 µM (inactive); with UACC-62, 6.55 µM (inactive). The GI50 in the assay on UO-31 was 2.96 µM (inactive).

For the molecule `Cc1ccc(C(=O)/C=C(\O)C(=O)NN=C(c2ccccc2)c2ccccc2)cc1`, the GI50 in the assay with BT-549 is 47.9 µM (inactive); in the assay on CAKI-1, > 100 µM (inactive); in the assay on HCC 2998, 80 µM (inactive); in the assay with HL-60 it was 13.9 µM (inactive); in the assay on K562 it was 17.3 µM (inactive); with KM12 it was 77.4 µM (inactive). The GI50 in the assay on M14 is > 100 µM (inactive); in the assay on Malme-3M, > 100 µM (inactive); in the assay with NCI-H460, 40.6 µM (inactive); in the assay on OVCAR-4 it was 63.1 µM (inactive); in the assay with PC-3, 40.2 µM (inactive); in the assay on SF-295, 66.8 µM (inactive). Further, the GI50 with SF-539 is > 100 µM (inactive); in the assay with SK-MEL-2 it was > 100 µM (inactive); with SK-OV-3, > 100 µM (inactive); with T47D, > 100 µM (inactive); in the assay with UACC-257 it was > 100 µM (inactive); in the assay on UACC-62, 68.9 µM (inactive). In the assay with UO-31, the GI50 is 55.6 µM (inactive).

For the molecule `C=CC1=C(C)c2cc3[nH]c(c4c5nc(cc6[nH]c(cc1n2)c(C=O)c6CC)C(C)=C5C(=O)[C@@H]4C(=O)OC)[C@@H](CCC(=O)O)[C@@H]3C`, the GI50 with BT-549 was > 100 µM (inactive); in the assay on CAKI-1, > 100 µM (inactive); in the assay with HCC 2998 it was > 100 µM (inactive); in the assay with HL-60 it was 42.6 µM (inactive); in the assay with K562, 51.3 µM (inactive); with KM12 it was 21.5 µM (inactive). The GI50 in the assay with M14 was > 100 µM (inactive); in the assay on Malme-3M it was > 100 µM (inactive); in the assay on NCI-H460, > 100 µM (inactive); in the assay on OVCAR-4, > 100 µM (inactive); in the assay with PC-3, 63.4 µM (inactive); in the assay with SF-295 it was 45 µM (inactive). Besides, the GI50 in the assay on SF-539 was 39.6 µM (inactive); with SK-MEL-2, > 100 µM (inactive); with SK-OV-3 it was > 100 µM (inactive); in the assay on T47D, 20.7 µM (inactive); in the assay on UACC-257, 83.9 µM (inactive); in the assay on UACC-62, > 100 µM (inactive). Further, the GI50 in the assay on UO-31 is 32.7 µM (inactive).
